Test results: patent US10220033B2, “Substituted benzoxazepine for cancer therapy” (University of Cape Town, priority 2014, dated 2019)
Like-named read-outs stand apart in the source and are kept apart here.

How the values were obtained:
[1] = test system: CaSki cervical cancer cell line; test: MTT assay for cell viability, IC50 determination; format: cell-based
Method: (§1) Cells were plated in 96-well plates and treated with varying concentrations of a test compound for 48 hours, after which MTT dye, 3-(4,5-dimethylthiazol-2-yl)-2,5-diphenyltetrazolium bromide (Sigma), was added, and crystals solubilised 4 hours later using Solubilisation Reagent (10% SLS in 0.01 M HCl). Absorbencies were measured at 595 nm the following day using a BioTek microplate spectrophotometer (Winooski, Vt., USA) and IC50 curves were generated using GraphPad Prism.

[2] = test system: NFAT transcriptional activity in NFAT-transfected HeLa cells; test: NFAT luciferase reporter assay; format: cell-based; details: stimulated with TPA and ionomycin (FIGS. 16-20)
Method: To assay for NFAT luciferase activity, 30 000 HeLa cells were plated per well in 24-well plates, and transfected with 50 ng GFP-NFAT plasmid (Addgene plasmid #24219, gift of Jerry Crabtree (Beals C R, Clipstone N A, Ho S N, Crabtree G R. Nuclear localization of NF-ATc by a calcineurin-dependent, cyclosporin-sensitive intramolecular interaction. Genes Dev 1997 Apr. 1; 11(7):824-34)), 50 ng NFAT-luciferase (Addgene plasmid #10959, gift of Toren Finkel (Ichida M, Finkel T. Ras regulates NFAT3 activity in cardiac myocytes. J Biol Chem 2001 Feb. 2; 276(5):3524-30)), and 5 ng pRL-TK, using 0.4 μl Genecellin™ Transfection Reagent (Celtic Molecular Diagnostics, South Africa). The NFAT-luciferase reporter plasmid contains three tandem repeats of a 30 bp fragment of the IL-2 promoter known to bind NFAT. The following day cells were treated with 10 or 15 μM Compound A and after an overnight incubation, stimulated with 100 nM TPA (Sigma) and 1.3 μM Ionomycin (Santa Cruz Biotechnology, Santa Cruz, Calif., USA) for 5 hours, following which luciferase activity was measured.
An assay for nuclear NFAT following ionomycin and Compound A treatment was carried out, using an NFAT-luciferase reporter that is activated by nuclear NFAT. The phorbol ester TPA was used to co-stimulate NFAT, as it has been shown previously that TPA and ionomycin elicit synergistic stimulation of NFAT luciferase activity (Northrop J P, Ullman K S, Crabtree G R. Characterization of the nuclear and cytoplasmic components of the lymphoid-specific nuclear factor of activated T cells (NF-AT) complex. J Biol Chem 1993 Feb. 5; 268(4):2917-23).

[3] = test system: HeLa cervical cancer cell line; test: MTT assay for cell viability, IC50 determination; format: cell-based; details: for IC50: Homo sapiens, HeLa
Method: as §1

[4] = test system: WHCO5 oesophageal cancer cell line; test: MTT assay for cell viability, IC50 determination; format: cell-based, human; details: Homo sapiens
Method: as §1

[5] = test system: KYSE180 oesophageal cancer cell line; test: MTT assay for cell viability, IC50 determination; format: cell-based; details: Homo sapiens, KYSE-180, 48 hours
Method: as §1

[6] = test system: cancer cell lines; test: MTT cell viability, summary statements over panels of cancer cell lines; format: cell-based; details: CaSki, HeLa, WHCO5, KYSE150, MCF12A, MCF7, MDA-MB-231, SVW138 (Table 4); read-out: IC50 values
Method: as §1

[7] = test system: DMB normal skin fibroblasts (non-cancer); test: MTT assay for cell viability, IC50 determination; format: cell-based; details: Skin fibroblast
Method: as §1

[8] = test system: MCF7 breast cancer cell line; test: MTT assay for cell viability, IC50 determination; format: cell-based; details: Homo sapiens
Method: as §1

[9] = test system: MDA-MB-231 breast cancer cell line; test: MTT assay for cell viability, IC50 determination; format: cell-based; details: Homo sapiens
Method: as §1

[10] = test system: SVWI38 transformed cell line; test: MTT assay for cell viability, IC50 determination; format: cell-based
Method: as §1

[11] = MTT assay for cell viability, IC50 determination; format: cell-based; details: Homo sapiens, MCF-12A, MCF12A
Method: as §1

[12] = test system: KYSE150 oesophageal cancer cell line; test: MTT assay for cell viability, IC50 determination; format: cell-based; details: Homo sapiens, KYSE-150
Method: as §1

[13] = test system: WI38 non-cancer cell line; test: MTT assay for cell viability, IC50 determination; format: cell-based; details: Homo sapiens, WI-38
Method: as §1

[14] = test system: EPC2 (EPC2-hTERT normal immortalised oesophageal epithelial cells); test: MTT assay for cell viability, IC50 determination; format: cell-based; details: Homo sapiens, compound in salt form
Method: as §1

[15] = Homo sapiens, Ca-Ski, 48 h, MTT, read-out: IC50
[16] = 48 h, 48 hours, MTT, read-out: IC50
[17] = compound in salt form, read-out: IC50
[18] = Homo sapiens, Ca-Ski, compound in salt form, read-out: IC50

IC50 [1, 15] [µM]	IC50 ([4]; 48 h, MTT) [µM]	IC50 [3, 16] [µM]	IC50 [5] [µM]	Compound	other results
24.4	–	–	–	Cc1ccc2cc(CNCCCN3C[C@@H]4C=C[C@H]3C4)c(N3CCC(O)CC3)nc2c1 (stereo in doubt) [VIII, 1-[3-[[3-[(1S,4R)-5-azabicyclo[2.2.1]hept-2-en-5-yl]propylamino]methyl]-7-methyl-2-quinolyl]piperidin4-ol]	–
–	–	–	–	COc1cc2ncnc(Nc3cccc(Cl)c3)c2cc1OC [AG 1478, reference compound]	NFAT activation (NFAT-luciferase reporter) [2]: no change
–	–	–	–	c1ccc2[nH]cnc2c1 [Benzimidazole, benzimidazole, reference compound]	IC50 ([3]; HeLa cells (FIG. 3B), read-out: IC50 concentration (cell-killing effect)): 2080 µM
5.59	5.7	6.36	6.03	CCN(CC)CCCn1c(N)c(-c2nc3ccccc3[nH]2)c2nc3ccccc3nc21 [Compound B]	–
9.49	8.32	7.19	8.46	Nc1c(-c2nc3ccccc3[nH]2)c2nc3ccccc3nc2n1CCCn1ccnc1 [Compound C]	–
12.2	12.2	8.38	14.8	CCCn1c(N)c(-c2nc3ccccc3[nH]2)c2nc3ccccc3nc21 [Compound D]	–
14.3	5.94	8.29	8.79	CCCCn1c(N)c(-c2nc3ccccc3[nH]2)c2nc3ccccc3nc21 [Compound E]	–
7.55	6.59	6.77	5.35	CC(C)Cn1c(N)c(-c2nc3ccccc3[nH]2)c2nc3ccccc3nc21 [Compound F]	–
6.17	6.14	6.38	5.51	CC(C)CCn1c(N)c(-c2nc3ccccc3[nH]2)c2nc3ccccc3nc21 [Compound G]	–
10	6.3	4.04	1.18	Nc1c(-c2nc3ccccc3[nH]2)c2nc3ccccc3nc2n1CCCO [Compound H]	–
8.69	17.9	8.62	–	Clc1ccccc1COc1nc2cc3c(cc2cc1CNCc1cn2c(n1)SCC2)CCC3 [Compound IV, ({2-[(2-chlorophenyl)methoxy]-6H,7H,8H-cyclopenta[g]quinolin-3-yl}methyl)({2H,3H-imidazo[2,1-b][1,3]thiazol-6-ylmethyl})amine]	IC50 [6]: 8 to 18 µM; IC50 ([7]; DMB non-cancer, 48 hours, MTT): 8.27 µM; IC50 ([8]; 48 hours, MTT): 14 µM; IC50 ([9]; 48 hours, MTT): 8.01 µM; IC50 ([10]; SVWI38 transformed, 48 hours, MTT): 12.9 µM; IC50 ([11]; 48 hours, MTT): 11.4 µM; IC50 ([12]; KYSE150, 48 hours, MTT): 11.2 µM; IC50 ([13]; WI38 non-cancer, 48 hours, MTT): 25.1 µM
26.6	–	–	–	Cc1cccc(N[C@@H](c2ccc(N(C)C)cc2)c2ccc3ccc(C)nc3c2O)n1 [Compound IX, 7-[(4-dimethylaminophenyl)-[(6-methyl-2-pyridyl)amino]methyl]-2-methyl-quinolin-8-ol]	IC50 ([4]; compound in salt form): 22.4 µM; IC50 ([7]; DMB, compound in salt form): 40.9 µM; IC50 ([8]; compound in salt form): 50.2 µM; IC50 ([9]; compound in salt form): 10.4 µM; IC50 ([10]; SVWI38, compound in salt form): 15.3 µM; IC50 ([11]; compound in salt form): 27.8 µM; IC50 ([12]; Kyse150, compound in salt form): 9.08 µM; IC50 [14]: 5.78 µM; IC50 [3, 17]: 12.3 µM; IC50 [1, 18]: 26.6 µM; IC50 ([13]; WI38, compound in salt form): 20.8 µM
–	19.6	15.4	22	Cn1c(-c2c(N)n(CCCN3CCOCC3)c3nc4ccccc4nc23)nc2ccccc21 [Compound I]	IC50 ([1]; 48 hours, MTT): Does not converge.
38.4	11.8	22.2	33.1	CCCn1c(N)c(-c2nc3ccccc3n2C)c2nc3ccccc3nc21 [Compound J]	–
6.62	6.79	4.16	7.23	CCn1c(N)c(-c2nc3ccccc3[nH]2)c2nc3ccccc3nc21 [Compound K]	–
26.7	–	–	–	Cc1csc2nc(CNCc3cc4cc5c(cc4n(CC4CCCCC4)c3=O)CCC5)cn12 [Compound X, 1-(cyclohexylmethyl)-3-[[(3-methylimidazo[2,1-b]thiazol-6-yl)methylamino]methyl]-7,8-dihydro-6H-cyclopenta[g]quinolin-2-one]	IC50 ([4]; compound in salt form): 20 µM; IC50 ([7]; DMB, compound in salt form): 69.3 µM; IC50 ([8]; compound in salt form): 23.7 µM; IC50 ([9]; compound in salt form): 22.1 µM; IC50 ([10]; SVWI38, compound in salt form): 33.5 µM; IC50 ([11]; compound in salt form): 11.7 µM; IC50 ([12]; Kyse150, compound in salt form): 32.2 µM; IC50 [14]: 9.37 µM; IC50 [3, 17]: 21.5 µM; IC50 [1, 18]: 26.7 µM; IC50 ([13]; WI38, compound in salt form): 39.4 µM
26.9	–	–	–	Cc1csc2nc(CNCc3cc4cc5c(cc4n(CCN4CCCCC4)c3=O)CCC5)cn12 [Compound XI, 3-[[(3-methylimidazo[2,1-b]thiazol-6-yl)methylamino]methyl]-1-[2-(1-piperidyl)ethyl]-7,8-dihydro-6H-cyclopenta[g]quinolin-2-one]	IC50 ([4]; compound in salt form): 17 µM; IC50 ([7]; DMB, compound in salt form): 31.2 µM; IC50 ([8]; compound in salt form): 95 µM; IC50 ([9]; compound in salt form): 32.7 µM; IC50 ([10]; SVWI38, compound in salt form): 41.1 µM; IC50 ([11]; compound in salt form): 61.8 µM; IC50 ([12]; Kyse150, compound in salt form): 40.1 µM; IC50 [3, 17]: 33.1 µM; IC50 [1, 18]: 26.9 µM; IC50 ([13]; WI38, compound in salt form): 35 µM
16.4	–	–	–	CCOC(=O)c1cc2c(=O)n3cc(C)ccc3nc2[n+](CCCN2CCOCC2)c1N [V, ethyl 2-imino-8-methyl-1-[3-(4-morpholinyl)propyl]-5-oxo-1,5-dihydro-2H-dipyrido[1,2-a:2′,3′-d]pyrimidine-3-carboxylate]	–
19.1	–	–	–	COc1ccc(C)cc1NC(=O)[C@@H](NCc1nc2ccccc2n1C)c1ccccc1 [VI, (2S)-N-(2-methoxy-5-methyl-phenyl)-2-[(1-methylbenzimidazol-2-yl)methylamino]-2-phenyl-acetamide]	–
22.2	–	–	–	Cc1ccc(OC[C@@H](O)CN2CCN(CCO)CC2)cc1C [VII, (2S)-1-(3,4-dimethylphenoxy)-3-[4-(2-hydroxyethyl)piperazin-1-yl]propan-2-ol]	–
31.7	–	–	–	Cc1ccc2c(c1)c1c(n2C[C@@H](O)CNC[C@@H]2CCCO2)CCCC1 [XIV, (2S)-1-(6-methyl-1,2,3,4-tetrahydrocarbazol-9-yl)-3-[[(2S)-tetrahydrofuran-2-yl]methylamino]propan-2-ol]	–
37.7	–	–	–	OCCCNCc1cc2cc3c(cc2nc1N1CCN(c2cccc(Cl)c2)CC1)OCO3 [XV, 3-[[6-[4-(3-chlorophenyl)piperazin-1-yl]-[1,3]dioxolo[4,5-g]quinolin-7-yl]methylamino]propan-1-ol]	–
46.8	–	–	–	CN1CCc2cc(CNC3CCN(c4ccc(C(=O)NC5CCCC5)cc4)CC3)ccc21 [XVI, N-cyclopentyl-4-[4-[(1-methylindolin-5-yl)methylamino]-1-piperidyl]benzamide]	–
–	–	–	–	c1ccc2nccnc2c1 [quinoxaline, reference compound]	cell-killing effect ([3]; HeLa cells, concentration range of up to 6.5 mM (FIG. 3A)): No cell-killing effect was observed
–	–	–	–	Ivermectin [reference compound]	NFAT activation (NFAT-luciferase reporter) [2]: significantly diminished
